Experimental data as given in patent US6951856B2, “Arylethene-sulfonamides” (Actelion Pharmaceuticals Ltd., priority 2000, dated 2005).
Where two headings read alike, the source gives them in different places.

Key:
[1] = target: T1, human recombinant ETA receptors (Homo sapiens, UniProt P25101); assay: Inhibition of [125I]ET-1 binding to membranes from CHO cells carrying human ETA receptors; conditions: CHO cell membranes, 8 pM [125I]ET-1, 2 h at 20° C.
T1 construct: expressed in transfected cells; host or cells: CHO cells (microsomal membranes)
T1 sequence (P25101 21-427): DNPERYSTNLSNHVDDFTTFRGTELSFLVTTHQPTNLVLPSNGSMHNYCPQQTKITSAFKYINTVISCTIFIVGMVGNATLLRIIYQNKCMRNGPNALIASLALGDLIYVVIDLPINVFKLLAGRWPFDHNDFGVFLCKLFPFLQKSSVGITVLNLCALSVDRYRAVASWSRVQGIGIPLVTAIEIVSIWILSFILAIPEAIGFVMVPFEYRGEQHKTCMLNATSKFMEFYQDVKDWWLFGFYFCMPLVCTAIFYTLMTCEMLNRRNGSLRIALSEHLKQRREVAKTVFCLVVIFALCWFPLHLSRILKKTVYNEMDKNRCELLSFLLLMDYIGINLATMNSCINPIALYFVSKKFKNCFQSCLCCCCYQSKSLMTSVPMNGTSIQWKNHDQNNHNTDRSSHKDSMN
Description: (§1) 1) Inhibition of Endothelin Binding to Membranes from CHO Cells Carrying Human ET Receptors
(§2) For competition binding studies, membranes of CHO cells expressing human recombinant ETA or ETB receptors were used. Microsomal membranes from recombinant CHO cells were prepared and the binding assay made as previously described (Breu V., et al, FEBS Lett 1993; 334:210).
(§3) The assay was performed in 200 uL 50 mM Tris/HCl buffer, pH 7.4, including 25 mM MnCl2, 1 mM EDTA and 0.5% (w/v) BSA in polypropylene microtiter plates. […] After 2 h, the membranes were filtered on filterplates containing GF/C filters (Unifilterplates from Canberra Packard S.A. Zürich, Switzerland). To each well, 50 uL of scintillation cocktail was added (MicroScint 20, Canberra Packard S.A. Zürich, Switzerland) and the filter plates counted in a microplate counter (TopCount, Canberra Packard S.A. Zürich, Switzerland).
(§4) All the test compounds were dissolved, diluted and added in DMSO.

[2] = target: T2, human recombinant ETB receptors (Homo sapiens, UniProt P24530); assay: Inhibition of [125I]ET-1 binding to membranes from CHO cells carrying human ETB receptors
T2 construct: expressed in transfected cells; host or cells: CHO cells (microsomal membranes)
T2 sequence (P24530 27-442): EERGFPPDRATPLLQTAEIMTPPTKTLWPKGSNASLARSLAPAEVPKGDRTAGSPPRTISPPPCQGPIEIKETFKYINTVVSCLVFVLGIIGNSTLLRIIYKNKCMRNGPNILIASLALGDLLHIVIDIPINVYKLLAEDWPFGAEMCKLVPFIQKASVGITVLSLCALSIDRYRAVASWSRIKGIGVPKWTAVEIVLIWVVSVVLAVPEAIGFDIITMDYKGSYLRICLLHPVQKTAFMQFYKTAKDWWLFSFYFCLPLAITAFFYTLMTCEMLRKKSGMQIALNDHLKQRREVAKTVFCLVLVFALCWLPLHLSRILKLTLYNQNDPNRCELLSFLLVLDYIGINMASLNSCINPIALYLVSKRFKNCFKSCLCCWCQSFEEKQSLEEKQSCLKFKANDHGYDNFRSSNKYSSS
Description: as §1, §2, §3, §4

Row | IC50 [1] [nM] | IC50 [2] [nM] | IC50 ([2]; CHO cell membranes, 8 pM [125I]ET-1, 2 h at 20° C.) [nM] | SMILES
1 | 25.4 | 1830 |  | Cc1ccc(-c2c(NS(=O)(=O)/C=C/c3ccccc3)ncnc2OCCOc2ncccn2)cc1 [Example 2, 2-phenyl-ethenesulfonic acid {6-[2-(pyrimidin-2-yloxy)-ethoxy]-5-p-tolyl-pyrimidin-4-yl}-amide]
2 | 7.6 | 4760 |  | Cc1ccc(-c2c(NS(=O)(=O)/C=C/c3cccs3)nc(-c3ncccn3)nc2OCCOc2ncc(Cl)cn2)cc1 [Example 73]
3 | 5 | 220 |  | COc1cnc(OCCOc2nc(N3CCOCC3)nc(NS(=O)(=O)/C=C/c3ccccc3)c2Oc2ccccc2OC)nc1 [Example 197]
4 | 9.8 | 1690 |  | COc1cnc(OCCOc2nc(C)nc(NS(=O)(=O)/C=C/c3ccccc3)c2-c2ccc(C)cc2)nc1 [Example 139]
5 | 9 | 699 |  | COc1cnc(OCCOc2nc(-c3ccncc3)nc(NS(=O)(=O)/C=C/c3ccsc3)c2Oc2ccccc2OC)nc1 [Example 179]
6 | 18.4 | 3880 |  | COc1nc(NS(=O)(=O)/C=C/c2ccccc2)c(-c2ccccc2)c(OCCOc2ncc(Br)cn2)n1 [Example 114]
7 | 24.9 | > 10000 |  | O=S(=O)(/C=C/c1ccccc1)Nc1nc(N2CCCCC2)nc(OCCOc2ncc(Br)cn2)c1-c1ccccc1 [Example 116]
8 | 9 | 2380 |  | Cc1ccc(-c2c(NS(=O)(=O)/C=C/c3cccs3)nc(-c3ncccn3)nc2OCCOc2ncc(Br)cn2)cc1 [Example 72]
9 | 21.7 | 4500 |  | COc1ccccc1Oc1c(NS(=O)(=O)/C=C/c2cccs2)nc(-c2ncccn2)nc1OCCOc1ncc(Br)cn1 [Example 157]
10 | 12.8 | 130 |  | Cc1ccc(-c2c(NS(=O)(=O)/C=C/c3ccccc3)ncnc2OCCOc2ccc(C(F)(F)F)cn2)cc1 [Example 5, 2-Phenyl-ethenesulfonic acid {5-p-tolyl-6-[2-(5-trifluoromethyl-pyridin-2-yloxy)-ethoxy]-pyrimidin-4-yl}-amide]
11 | 17.6 | > 10000 |  | Cc1ccc(-c2c(NS(=O)(=O)/C=C/c3cccs3)nc(-c3ncccn3)nc2OCCOc2ncc(C)cn2)cc1 [Example 75]
12 | 7.4 | 1030 |  | COc1ccccc1Oc1c(NS(=O)(=O)/C=C/c2ccsc2)nc(-c2ccncc2)nc1OCCOc1ncccn1 [Example 180]
13 | 16 | 258 |  | Cc1ccc(-c2c(NS(=O)(=O)/C=C/c3cccs3)ncnc2OCCOc2ccc(C(F)(F)F)cn2)cc1 [Example 70]
14 | 14.5 | 3910 |  | COc1ccc(Cl)c(Oc2c(NS(=O)(=O)/C=C/c3ccccc3)nc(-c3ccncc3)nc2OCCOc2ncc(Br)cn2)c1 [Example 228]
15 | 2.4 | 349 |  | COc1ccccc1Oc1c(NS(=O)(=O)/C(C)=C/c2ccccc2)nc(N2CCOCC2)nc1OCCOc1ncc(Br)cn1 [Example 202]
16 | 21.7 | 657 |  | Cc1ccc(/C=C/S(=O)(=O)Nc2ncnc(OCCOc3ncc(Cl)cn3)c2-c2ccc(C)cc2)cc1 [Example 24]
17 | 46.3 | 722 |  | Cc1ccc(-c2c(NS(=O)(=O)/C=C/c3ccccc3)ncnc2OCCOc2ccc(Br)cc2)cc1 [Example 3, 2-phenyl-ethenesulfonic acid {6-[2-(4-bromo-phenoxy)-ethoxy]-5-p-tolyl-pyrimidin-4-yl}-amide]
18 | 33.2 | 309 |  | COc1ccc(-c2c(NS(=O)(=O)/C=C/c3ccccc3)ncnc2OCCOc2ccc(Br)cn2)cc1 [Example 124]
19 | 21 | 1360 |  | COc1cnc(OCCOc2ncnc(NS(=O)(=O)/C=C/c3cccc(C)c3)c2-c2ccc(Cl)cc2)nc1 [Example 53]
20 | 273 | 8600 |  | Cc1ccc(-c2c(NS(=O)(=O)/C=C/c3ccccc3)ncnc2OCCOc2cnccn2)cc1 [Example 4]
21 | 41 | 506 |  | COc1ccccc1Oc1c(NS(=O)(=O)/C=C/c2ccccc2)ncnc1OCCOc1ncc(SC)cn1 [Example 222]
22 | 58 | 4900 |  | C/C(=C\c1ccccc1)S(=O)(=O)Nc1ncnc(OCCOc2ncc(Br)cn2)c1-c1ccc(Cl)cc1 [Example 62]
23 | 5.2 | 830 |  | COc1ccc(Cl)c(Oc2c(NS(=O)(=O)/C=C/c3ccccc3)ncnc2OCCOc2ncc(Br)cn2)c1 [Example 225]

Row | IC50 [1] [nM] | IC50 [2] [nM] | IC50 ([2]; CHO cell membranes, 8 pM [125I]ET-1, 2 h at 20° C.) [nM] | SMILES
24 | 15.4 | 1550 |  | COc1cnc(OCCOc2ncnc(NS(=O)(=O)/C=C/c3ccccc3)c2Oc2cc(OC)ccc2Cl)nc1 [Example 226]
25 | 7.1 | 1980 |  | COc1ccccc1Oc1c(NS(=O)(=O)/C=C/c2ccsc2)nc(-c2ccncc2)nc1OCCOc1ncc(Cl)cn1 [Example 181]
26 | 19.3 | 332 |  | O=S(=O)(/C=C/c1ccccc1)Nc1ncnc(OCCOc2ccc(C(F)(F)F)cn2)c1-c1ccc(Cl)cc1 [Example 45]
27 | 38.7 | 1630 |  | COc1ccc(-c2c(NS(=O)(=O)/C=C/c3ccccc3)ncnc2OCCOc2ncc(Cl)cn2)cc1 [Example 120]
28 | 4.4 | 1340 |  | Cc1ccc(-c2c(NS(=O)(=O)/C=C/c3ccccc3)nc(C)nc2OCCOc2ncc(Br)cn2)cc1 [Example 138]
29 | 12.1 | 1260 |  | COc1ccccc1Oc1c(NS(=O)(=O)/C=C/c2cccs2)nc(-c2ncccn2)nc1OCCOc1ncccn1 [Example 158]
30 | 82.4 | 1350 |  | Cc1ccc(-c2c(NS(=O)(=O)/C=C/c3ccccc3)ncnc2OCCOc2ccc(Cl)cc2)cc1 [Example 6]
31 | 9.1 |  | 2380 | Cc1ccc(-c2c(NS(=O)(=O)/C=C/c3cccs3)nc(-c3ncccn3)nc2OCCOc2ncc(Br)cn2)cc1 [Example 145]
32 | 14 | 183 |  | O=S(=O)(/C=C/c1ccc(Cl)cc1)Nc1ncnc(OCCOc2ncc(Br)cn2)c1-c1ccc(Cl)cc1 [Example 54]
33 | 31 | 6890 |  | O=S(=O)(/C=C/c1ccccc1)Nc1ncnc(OCCOc2ncc(F)cn2)c1-c1ccc(Cl)cc1 [Example 50]
34 | 8.2 | 1770 |  | COc1cnc(OCCOc2nc(C3CC3)nc(NS(=O)(=O)/C=C/c3ccccc3)c2-c2ccc(C)cc2)nc1 [Example 133]
35 | 12.3 | 937 |  | COc1cccc(Oc2c(NS(=O)(=O)/C=C/c3ccccc3)ncnc2OCCOc2ncc(Br)cn2)c1 [Example 230]
36 | 7.8 | 3530 |  | COc1cnc(OCCOc2nc(-c3ncccn3)nc(NS(=O)(=O)/C=C/c3cccs3)c2-c2ccc(C)cc2)nc1 [Example 74]
37 | 10 | 3060 |  | COc1cnc(OCCOc2nc(-c3ncccn3)nc(NS(=O)(=O)/C=C/c3ccccc3)c2-c2ccc(C)cc2)nc1 [Example 144]
38 | 4.6 | 1220 |  | O=S(=O)(/C=C/c1cccs1)Nc1ncnc(OCCOc2ncc(Cl)cn2)c1-c1ccc(Br)cc1 [Example 89]
39 | 6 | 1650 |  | Cc1ccc(-c2c(NS(=O)(=O)/C=C/c3cccs3)ncnc2OCCOc2ncc(Cl)cn2)cc1 [Example 69]
40 | 10 | 290 |  | COc1cccc(Oc2c(NS(=O)(=O)/C=C/c3ccccc3)ncnc2OCCOc2ncc(SC)cn2)c1 [Example 232]
41 | 41.8 | 9070 |  | C/C(=C\c1ccccc1)S(=O)(=O)Nc1ncnc(OCCOc2ncc(Br)cn2)c1-c1ccc(C)cc1 [Example 30]
42 | 11.5 | 193 |  | Cc1ccc(-c2c(NS(=O)(=O)/C=C/c3ccc(Cl)cc3)ncnc2OCCOc2ncc(Br)cn2)cc1 [Example 27]
43 | 33 | 8390 |  | O=S(=O)(/C=C/c1ccccc1)Nc1ncnc(OCCOc2ncc(C(F)(F)F)cn2)c1-c1ccccc1 [Example 95]
44 | 39 | > 10000 |  | O=S(=O)(/C=C/c1ccccc1)Nc1nc(-c2ccncc2)nc(OCCOc2ncc(Br)cn2)c1-c1ccccc1 [Example 109]
45 | 6.7 | 2700 |  | Cc1ccc(-c2c(NS(=O)(=O)/C=C/c3ccccc3)nc(-c3cnccn3)nc2OCCOc2ncc(Br)cn2)cc1 [Example 125]
46 | 8.2 | 270 |  | Cc1ccc(/C=C/S(=O)(=O)Nc2ncnc(OCCOc3ncc(Br)cn3)c2-c2ccc(C)cc2)cc1 [Example 23]
